System: Cochliobolus miyabeanus
Assay: activity against brown spot of rice caused by Cochliobolus miyabeanus, protective application
Assay type: in vivo
Conditions: individual active compound, rice seedlings, assessed 6 days after inoculation
Experimental: The active compounds, separately or jointly, were prepared as a stock solution with 0.25% by weight of active compound in acetone or DMSO. 1% by weight of the emulsifier Uniperol® EL (wetting agent having emulsifying and dispersing action based on ethoxylated alkylphenols) was added to this solution, and the solution was diluted with water to the desired concentration.
Use example—activity against brown spot of rice caused by Cochliobolus miyabeanus, protective application
Leaves of potted rice seedlings of the cultivar “Tai-Nong 67” were sprayed to runoff point with an aqueous suspension of the concentration of active compound stated below. The next day, the plants were inoculated with an aqueous spore suspension of Cochliobolus miyabeanus. The test plants were then placed in climatized chambers at 22-24° C. and 95-99 % relative atmospheric humidity for six days. The extent of the development of the infection on the leaves was then determined visually.
Evaluation was carried out by determining the percentage of infected plants. These percentages were converted into efficacies.
The efficacy (E) is calculated as follows using Abbot's formula: E=(1−α/β)·100 α corresponds to the fungicidal infection of the treated plants in % and β corresponds to the fungicidal infection of the untreated (control) plants in %
An efficacy of 0 means that the infection level of the treated plants corresponds to that of the untreated control plants; an efficacy of 100 means that the treated plants are not infected.
The expected efficacies of mixtures of active compounds are determined using Colby's formula (R. S. Colby, Weeds, 15, 20-22, 1967) and compared with the observed efficacies.
Colby's formula: E=x+y−x·y/100 • E expected efficacy, expressed in % of the untreated control, when using the mixture of the active compounds A and B at the concentrations a and b • x efficacy, expressed in % of the untreated control, when using the active compound A at the concentration a • y efficacy, expressed in % of the untreated control, when using the active compound B at the concentration b

| SMILES | Efficacy in % of the untreated control (1 ppm in the spray liquor) [%] | Efficacy in % of the untreated control (4 ppm in the spray liquor) [%] |
| --- | --- | --- |
| CC1CCN(c2c(-c3c(F)cc(F)cc3F)c(Cl)nc3ncnn23)CC1 [I, 5-chloro-7-(4-methylpiperidin-1-yl)-6-(2,4,6-trifluorophenyl)-[1,2,4]triazolo[1,5-a]pyrimidine] | 8 | – |
| N#Cc1c[nH]cc1-c1cccc(Cl)c1Cl [II (fenpiclonil), 4-(2,3-dichlorophenyl)-1 H-pyrrole-3-carbonitrile] | 0 | 0 |
| CC1CCN(c2c(-c3c(F)cccc3Cl)c(Cl)nc3ncnn23)CC1 [comparative compound A] | 20 | – |
| C[C@H](Nc1c(-c2c(F)cc(F)cc2F)c(Cl)nc2ncnn12)C(F)(F)F [comparative compound B] | 20 | – |
